Data taken from patent US12077503B2, “Substituted cyclic amides and their use as herbicides” (FMC CORPORATION, priority 2015, dated 2024).

Assays:
Test in all cases: Test C preemergence
Type in all cases: in vivo
Conditions in all cases: scale 0 to 100, 0 no effect, 100 complete control
[1] = system: barnyardgrass (Echinochloa crus-galli)
Description: (§1) Seeds of plant species selected from blackgrass (Alopecurus myosuroides), ryegrass, Italian (Italian ryegrass, Lolium multiflorum), wheat (winter wheat, Triticum aestivum), Galium (catchweed bedstraw, Galium aparine), corn (Zea mays), crabgrass, large (large crabgrass, Digitaria sanguinalis), foxtail, giant (giant foxtail, Setaria faberii), johnsongrass (Sorghum halepense), lambsquarters (Chenopodium album), morningglory (Ipomoea coccinea), nutsedge, yellow (yellow nutsedge, Cyperus esculentus), pigweed (Amaranthus retroflexus), ragweed (common ragweed, Ambrosia elatior), soybean (Glycine max), barnyardgrass (Echinochloa crus-galli), oilseed rape (Brassica napus), waterhemp (common waterhemp, Amaranthus rudis) and velvetleaf (Abutilon theophrasti) were planted into a blend of loam soil and sand and treated preemergence with test chemicals formulated in a non-phytotoxic solvent mixture which included a surfactant.
(§2) At the same time, plants selected from these crop and weed species and also Kochia (Kochia scoparia), oat, wild (wild oat, Avena fatua), and chickweed (common chickweed, Stellaria media) were planted in pots containing Sunshine Redi-Earth® planting medium comprising spaghnum peat moss, vermiculite, starter nutrients and dolomitic limestone and treated with postemergence applications of test chemicals formulated in the same manner. Plants ranged in height from 2 to 18 cm (1- to 4-leaf stage) for postemergence treatments. Treated plants and controls were maintained in a greenhouse for 13 to 15 d, after which time all species were compared to controls and visually evaluated. Plant response ratings, summarized in Table C, are based on a scale of 0 to 100 where 0 is no effect and 100 is complete control. A dash (-) response means no test result.

[2] = system: blackgrass (Alopecurus myosuroides)
Description: as §1, §2

corn (Zea mays) = system: corn (Zea mays)
Description: as §1, §2

[3] = system: crabgrass, large (large crabgrass, Digitaria sanguinalis)
Description: as §1, §2

[4] = system: foxtail, giant (giant foxtail, Setaria faberii)
Description: as §1, §2

[5] = system: johnsongrass (Sorghum halepense)
Description: as §1, §2

[6] = system: lambsquarters (Chenopodium album)
Description: as §1, §2

[7] = system: morningglory (Ipomoea coccinea)
Description: as §1, §2

[8] = system: nutsedge, yellow (yellow nutsedge, Cyperus esculentus)
Description: as §1, §2

[9] = system: oilseed rape (Brassica napus)
Description: as §1, §2

[10] = system: pigweed (Amaranthus retroflexus)
Description: as §1, §2

[11] = system: ragweed (common ragweed, Ambrosia elatior)
Description: as §1, §2

[12] = system: ryegrass, Italian (Italian ryegrass, Lolium multiflorum)
Description: as §1, §2

soybean (Glycine max) = system: soybean (Glycine max)
Description: as §1, §2

[13] = system: velvetleaf (Abutilon theophrasti)
Description: as §1, §2

[14] = system: waterhemp (common waterhemp, Amaranthus rudis)
Description: as §1, §2

[15] = system: wheat (winter wheat, Triticum aestivum)
Description: as §1, §2

[16] = system: Galium (catchweed bedstraw, Galium aparine)
Description: as §1, §2

Compound: CN1CC(c2cccc(OC(F)(F)C(F)F)c2)C(C(=O)Nc2cccc(F)c2F)C1=O (stereo not shown) [Compound 392]
- Plant response rating, Barnyardgrass ([1]; 31 g ai/ha): 90
- Plant response rating, Barnyardgrass ([1]; 62 g ai/ha): 90
- Plant response rating, Barnyardgrass ([1]; 125 g ai/ha): 90
- Plant response rating, Barnyardgrass ([1]; 250 g ai/ha): 95
- Plant response rating, Blackgrass ([2]; 31 g ai/ha): 20
- Plant response rating, Blackgrass ([2]; 62 g ai/ha): 45
- Plant response rating, Blackgrass ([2]; 125 g ai/ha): 70
- Plant response rating, Blackgrass ([2]; 250 g ai/ha): 60
- Plant response rating, Corn (corn (Zea mays); 31 g ai/ha): 45
- Plant response rating, Corn (corn (Zea mays); 62 g ai/ha): 65
- Plant response rating, Corn (corn (Zea mays); 125 g ai/ha): 55
- Plant response rating, Corn (corn (Zea mays); 250 g ai/ha): 75
- Plant response rating, Crabgrass, Large ([3]; 31 g ai/ha): 90
- Plant response rating, Crabgrass, Large ([3]; 62 g ai/ha): 95
- Plant response rating, Crabgrass, Large ([3]; 125 g ai/ha): 95
- Plant response rating, Crabgrass, Large ([3]; 250 g ai/ha): 95
- Plant response rating, Foxtail, Giant ([4]; 31 g ai/ha): 90
- Plant response rating, Foxtail, Giant ([4]; 62 g ai/ha): 95
- Plant response rating, Foxtail, Giant ([4]; 125 g ai/ha): 95
- Plant response rating, Foxtail, Giant ([4]; 250 g ai/ha): 95
- Plant response rating, Johnsongrass ([5]; 31 g ai/ha): 70
- Plant response rating, Johnsongrass ([5]; 62 g ai/ha): 85
- Plant response rating, Johnsongrass ([5]; 125 g ai/ha): 85
- Plant response rating, Johnsongrass ([5]; 250 g ai/ha): 90
- Plant response rating, Lambsquarters ([6]; 31 g ai/ha): 60
- Plant response rating, Lambsquarters ([6]; 62 g ai/ha): 70
- Plant response rating, Lambsquarters ([6]; 125 g ai/ha): 75
- Plant response rating, Lambsquarters ([6]; 250 g ai/ha): 75
- Plant response rating, Morningglory ([7]; 31 g ai/ha): 0
- Plant response rating, Morningglory ([7]; 62 g ai/ha): 0
- Plant response rating, Morningglory ([7]; 125 g ai/ha): 0
- Plant response rating, Morningglory ([7]; 250 g ai/ha): 15
- Plant response rating, Nutsedge, Yellow ([8]; 31 g ai/ha): 0
- Plant response rating, Nutsedge, Yellow ([8]; 62 g ai/ha): 0
- Plant response rating, Nutsedge, Yellow ([8]; 125 g ai/ha): 0
- Plant response rating, Nutsedge, Yellow ([8]; 250 g ai/ha): 0
- Plant response rating, Oilseed Rape ([9]; 31 g ai/ha): 70
- Plant response rating, Oilseed Rape ([9]; 62 g ai/ha): 80
- Plant response rating, Oilseed Rape ([9]; 125 g ai/ha): 85
- Plant response rating, Oilseed Rape ([9]; 250 g ai/ha): 90
- Plant response rating, Pigweed ([10]; 31 g ai/ha): 75
- Plant response rating, Pigweed ([10]; 62 g ai/ha): 80
- Plant response rating, Pigweed ([10]; 125 g ai/ha): 85
- Plant response rating, Pigweed ([10]; 250 g ai/ha): 90
- Plant response rating, Ragweed ([11]; 31 g ai/ha): 70
- Plant response rating, Ragweed ([11]; 62 g ai/ha): 45
- Plant response rating, Ragweed ([11]; 125 g ai/ha): 60
- Plant response rating, Ragweed ([11]; 250 g ai/ha): 70
- Plant response rating, Ryegrass, Italian ([12]; 62 g ai/ha): 40
- Plant response rating, Ryegrass, Italian ([12]; 125 g ai/ha): 55
- Plant response rating, Ryegrass, Italian ([12]; 250 g ai/ha): 90
- Plant response rating, Soybean (soybean (Glycine max); 62 g ai/ha): 100
- Plant response rating, Soybean (soybean (Glycine max); 125 g ai/ha): 15
- Plant response rating, Soybean (soybean (Glycine max); 250 g ai/ha): 5
- Plant response rating, Velvetleaf ([13]; 62 g ai/ha): 40
- Plant response rating, Velvetleaf ([13]; 125 g ai/ha): 60
- Plant response rating, Velvetleaf ([13]; 250 g ai/ha): 70
- Plant response rating, Waterhemp ([14]; 62 g ai/ha): 85
- Plant response rating, Waterhemp ([14]; 125 g ai/ha): 90
- Plant response rating, Waterhemp ([14]; 250 g ai/ha): 90
- Plant response rating, Wheat ([15]; 62 g ai/ha): 35
- Plant response rating, Wheat ([15]; 125 g ai/ha): 80
- Plant response rating, Wheat ([15]; 250 g ai/ha): 75

Compound: O=C1NCC(c2ccc(Br)cc2)C1C(=O)Nc1cccc(F)c1F (stereo not shown) [Compound 446]
- Plant response rating, Galium ([16]; 31 g ai/ha): 0
- Plant response rating, Galium ([16]; 62 g ai/ha): 90
- Plant response rating, Galium ([16]; 125 g ai/ha): 90
- Plant response rating, Galium ([16]; 250 g ai/ha): 95
- Plant response rating, Barnyardgrass ([1]; 31 g ai/ha): 90
- Plant response rating, Barnyardgrass ([1]; 62 g ai/ha): 90
- Plant response rating, Barnyardgrass ([1]; 125 g ai/ha): 90
- Plant response rating, Barnyardgrass ([1]; 250 g ai/ha): 95
- Plant response rating, Blackgrass ([2]; 31 g ai/ha): 0
- Plant response rating, Blackgrass ([2]; 62 g ai/ha): 0
- Plant response rating, Blackgrass ([2]; 125 g ai/ha): 50
- Plant response rating, Blackgrass ([2]; 250 g ai/ha): 55
- Plant response rating, Corn (corn (Zea mays); 31 g ai/ha): 0
- Plant response rating, Corn (corn (Zea mays); 62 g ai/ha): 0
- Plant response rating, Corn (corn (Zea mays); 125 g ai/ha): 0
- Plant response rating, Corn (corn (Zea mays); 250 g ai/ha): 10
- Plant response rating, Crabgrass, Large ([3]; 31 g ai/ha): 100
- Plant response rating, Crabgrass, Large ([3]; 62 g ai/ha): 100
- Plant response rating, Crabgrass, Large ([3]; 125 g ai/ha): 100
- Plant response rating, Crabgrass, Large ([3]; 250 g ai/ha): 100
- Plant response rating, Foxtail, Giant ([4]; 31 g ai/ha): 85
- Plant response rating, Foxtail, Giant ([4]; 62 g ai/ha): 90
- Plant response rating, Foxtail, Giant ([4]; 125 g ai/ha): 90
- Plant response rating, Foxtail, Giant ([4]; 250 g ai/ha): 95
- Plant response rating, Johnsongrass ([5]; 31 g ai/ha): 20
- Plant response rating, Johnsongrass ([5]; 62 g ai/ha): 40
- Plant response rating, Johnsongrass ([5]; 125 g ai/ha): 50
- Plant response rating, Johnsongrass ([5]; 250 g ai/ha): 65
- Plant response rating, Lambsquarters ([6]; 31 g ai/ha): 60
- Plant response rating, Lambsquarters ([6]; 62 g ai/ha): 50
- Plant response rating, Lambsquarters ([6]; 125 g ai/ha): 55
- Plant response rating, Lambsquarters ([6]; 250 g ai/ha): 95
- Plant response rating, Morningglory ([7]; 31 g ai/ha): 0
- Plant response rating, Morningglory ([7]; 62 g ai/ha): 0
- Plant response rating, Morningglory ([7]; 125 g ai/ha): 0
- Plant response rating, Morningglory ([7]; 250 g ai/ha): 0
- Plant response rating, Nutsedge, Yellow ([8]; 31 g ai/ha): 0
- Plant response rating, Nutsedge, Yellow ([8]; 62 g ai/ha): 0
- Plant response rating, Nutsedge, Yellow ([8]; 125 g ai/ha): 0
- Plant response rating, Nutsedge, Yellow ([8]; 250 g ai/ha): 0
- Plant response rating, Oilseed Rape ([9]; 31 g ai/ha): 0
- Plant response rating, Oilseed Rape ([9]; 62 g ai/ha): 85
- Plant response rating, Oilseed Rape ([9]; 125 g ai/ha): 90
- Plant response rating, Oilseed Rape ([9]; 250 g ai/ha): 95
- Plant response rating, Pigweed ([10]; 31 g ai/ha): 50
- Plant response rating, Pigweed ([10]; 62 g ai/ha): 75
- Plant response rating, Pigweed ([10]; 125 g ai/ha): 80
- Plant response rating, Pigweed ([10]; 250 g ai/ha): 85
- Plant response rating, Ragweed ([11]; 31 g ai/ha): 25
- Plant response rating, Ragweed ([11]; 62 g ai/ha): 40
- Plant response rating, Ragweed ([11]; 125 g ai/ha): 75
- Plant response rating, Ragweed ([11]; 250 g ai/ha): 85
- Plant response rating, Ryegrass, Italian ([12]; 62 g ai/ha): 0
- Plant response rating, Ryegrass, Italian ([12]; 125 g ai/ha): 0
- Plant response rating, Ryegrass, Italian ([12]; 250 g ai/ha): 45
- Plant response rating, Soybean (soybean (Glycine max); 62 g ai/ha): 20
- Plant response rating, Soybean (soybean (Glycine max); 125 g ai/ha): 10
- Plant response rating, Soybean (soybean (Glycine max); 250 g ai/ha): 25
- Plant response rating, Velvetleaf ([13]; 62 g ai/ha): 0
- Plant response rating, Velvetleaf ([13]; 125 g ai/ha): 10
- Plant response rating, Velvetleaf ([13]; 250 g ai/ha): 30
- Plant response rating, Waterhemp ([14]; 62 g ai/ha): 100
- Plant response rating, Waterhemp ([14]; 125 g ai/ha): 80
- Plant response rating, Waterhemp ([14]; 250 g ai/ha): 98
- Plant response rating, Wheat ([15]; 62 g ai/ha): 0
- Plant response rating, Wheat ([15]; 125 g ai/ha): 0
- Plant response rating, Wheat ([15]; 250 g ai/ha): 30
